Results on 32 compounds are retold here after patent US20050197350A1, “Novel quinoline, tetrahydroquinazoline, and pyrimidine derivatives and methods of treatment related to the use thereof” (TAISHO PHARMACEUTICAL CO., LTD., priority 2003, published 2005).

The structures appear in SMILES notation. Counter-ions that a name gives are not always drawn. A value given as a limit tells only on which side of the number the result lay.

The target in the test is MCH receptor (Homo sapiens, UniProt Q99705). Kind of test: High throughput functional screening FLIPR/FDSS6000 (intracellular Ca2+ evoked by MCH). In kind it is cell-based. As to conditions: FLIPR/FDSS, antagonist activity vs 50 nM MCH; class by percent of control at 10^−7 M or IC50; table after the classification; read-out: class. In short, it runs like this:
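For antagonist testing, compound-treated cells (30 min, 37 °C) were stimulated with 50 nM MCH and intracellular Ca2+ followed by Fluo4 fluorescence on FLIPR/FDSS6000. Receptor was a constitutively active, non-endogenous MCH receptor; dye loading 4 μM Fluo4-AM, 1 h, 37 °C.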

In the case of `CN(C)c1nc(N[C@H]2CC[C@@H](NC(=O)c3cc([N+](=O)[O-])cn3C)CC2)nc2c1CCCC2` [Example 3194, 1-Methyl-4-nitro-1H-pyrrole-2-carboxylic acid [cis-4-(4-dimethylamino-5,6,7,8-tetrahydro-quinazolin-2-ylamino)-cyclohexyl]-amide hydrochloride], the IC50 was below 0.05 µM. As for `CN(C)c1nc(N[C@H]2CC[C@@H](CNC(=O)c3ccc(F)c(F)c3)CC2)nc2c1CCCC2` [Example 3195, N-[cis-4-(4-Dimethylamino-5,6,7,8-tetrahydro-quinazolin-2-ylamino)-cyclohexylmethyl]-3,4-difluoro-benzamide hydrochloride], the IC50 lay in the range of 0.05 to 0.2 µM. `CN(C)c1nc(N[C@H]2CC[C@@H](CNC(=O)Nc3cccc(Cl)c3Cl)CC2)nc2c1CCCC2` [Example 3196, 1-(2,3-Dichloro-phenyl)-3-[cis-4-(4-dimethylamino-5,6,7,8-tetrahydro-quinazolin-2-ylamino)-cyclohexylmethyl]-urea hydrochloride]: the IC50 lay within 0.05 to 0.2 µM. Turning to `CN(C)c1ccnc(N[C@H]2CC[C@@H](NC(=O)c3ccc(F)c(F)c3)CC2)n1` [Example 3197, N-[cis-4-(4-Dimethylamino-pyrimidin-2-ylamino)-cyclohexyl]-3,4-difluoro-benzamide hydrochloride], the IC50 fell in the range of 0.05 to 0.2 µM. Then `CN(C)c1ccnc(N[C@H]2CC[C@@H](NC(=O)c3csc([N+](=O)[O-])c3)CC2)n1` [Example 3198, 5-Nitro-thiophene-3-carboxylic acid [cis-4-(4-dimethylamino-pyrimidine-2-ylamino)-cyclohexyl]-amide hydrochloride], with below 0.05 µM; and `CN(C)c1ccnc(N[C@H]2CC[C@@H](NC(=O)c3ccc(-c4ccc(Cl)cc4)o3)CC2)n1` [Example 3199, 5-(4-Chloro-phenyl)-furan-2-carboxylic acid [cis-4-(4-dimethylamino-pyrimidin-2-ylamino)-cyclohexyl]-amide hydrochloride], with below 0.05 µM.

`CN(C)c1ccnc(N[C@H]2CC[C@@H](NC(=O)c3ccc(-c4ccc(F)cc4)cc3)CC2)n1` [Example 3200, 4′-Fluoro-biphenyl-4-carboxylic acid [cis-4-(4-dimethylamino-pyrimidin-2-ylamino)-cyclohexyl]-amide hydrochloride]: the IC50 was above 0.2 µM.

For the compound `CN(C)c1ccnc(N[C@H]2CC[C@@H](NC(=O)c3cccnc3Oc3ccc(F)cc3)CC2)n1` [Example 3201, N-[cis-4-(4-Dimethylamino-pyrimidin-2-ylamino)-cyclohexyl]-2-(4-fluoro-phenoxy)-nicotinamide hydrochloride], the IC50 was below 0.05 µM. Then `CCN(CC(=O)N[C@H]1CC[C@@H](Nc2nccc(N(C)C)n2)CC1)c1ccccc1` [Example 3202, N-[cis-4-(4-Dimethylamino-pyrimidin-2-ylamino)-cyclohexyl]-C-(ethyl-phenyl-amino)-acetamide dihydrochloride], with below 0.05 µM; and `CCN(CC(=O)N[C@H]1CC[C@@H](Nc2nccc(N(C)C)n2)CC1)c1ccc(Cl)cc1` [Example 3203, C-[cis-(4-Chloro-phenyl)-ethyl-amino]-N-[4-(4-dimethylamino-pyrimidin-2-ylamino)-cyclohexyl]-acetamide dihydrochloride], with below 0.05 µM; and `CN(C)c1ccnc(N[C@H]2CC[C@@H](NC(=O)Cc3ccc(F)c(F)c3)CC2)n1` [Example 3204, 2-(3,4-Difluoro-phenyl)-N-[cis-4-(4-dimethylamino-pyrimidin-2-ylamino)-cyclohexyl]-acetamide hydrochloride], with 0.05 to 0.2 µM. For `CN(C)c1ccnc(N[C@H]2CC[C@@H](NC(=O)c3cc(F)cc(F)c3)CC2)n1` [Example 3205, N-[cis-4-(4-Dimethylamino-pyrimidin-2-ylamino)-cyclohexyl]-3,5-difluoro-benzamide hydrochloride], the IC50 fell in the range of 0.05 to 0.2 µM. Consider `CN(C)c1ccnc(N[C@H]2CC[C@@H](NC(=O)c3ccc(F)c(Cl)c3)CC2)n1` [Example 3206, 3-Chloro-N-[cis-4-(4-dimethylamino-pyrimidin-2-ylamino)-cyclohexyl]-4-fluoro-benzamide hydrochloride], for which the IC50 is below 0.05 µM.

`CN(C)c1ccnc(N[C@H]2CC[C@@H](NC(=O)c3ccc(Cl)c(F)c3)CC2)n1` [Example 3207, 4-Chloro-N-[cis-4-(4-dimethylamino-pyrimidin-2-ylamino)-cyclohexyl]-3-fluoro-benzamide hydrochloride]: the IC50 was below 0.05 µM.

Turning to `CN(C)c1ccnc(N[C@H]2CC[C@@H](NC(=O)c3ccccn3)CC2)n1` [Example 3208, Pyridine-2-carboxylic acid [cis-4-(4-dimethylamino-pyrimidin-2-ylamino)-cyclohexyl]-amide hydrochloride], the IC50 is above 0.2 µM. The result for `CN(C)c1ccnc(N[C@H]2CC[C@@H](NC(=O)c3cccnc3)CC2)n1` [Example 3209, N-[cis-4-(4-Dimethylamino-pyrimidin-2-ylamino)-cyclohexyl]-nicotinamide dihydrochloride] reads above 0.2 µM; that for `CN(C)c1ccnc(N[C@H]2CC[C@@H](NC(=O)c3ccncc3)CC2)n1` [Example 3210, N-[cis-4-(4-Dimethylamino-pyrimidin-2-ylamino)-cyclohexyl]-isonicotinamide dihydrochloride], above 0.2 µM; that for `CN(C)c1ccnc(N[C@H]2CC[C@@H](NC(=O)c3cncc(Br)c3)CC2)n1` [Example 3211, 5-Bromo-N-[cis-4-(4-dimethylamino-pyrimidin-2-ylamino)-cyclohexyl]-nicotinamide hydrochloride], below 0.05 µM. The result for `CN(C)c1ccnc(N[C@H]2CC[C@@H](NC(=O)c3ccc(C(F)(F)F)nc3)CC2)n1` [Example 3212, N-[cis-4-(4-Dimethylamino-pyrimidin-2-ylamino)-cyclohexyl]-6-trifluoromethyl-nicotinamide hydrochloride] reads above 0.2 µM; that for `CN(C)c1ccnc(N[C@H]2CC[C@@H](NC(=O)c3cc(Cl)ccn3)CC2)n1` [Example 3213, 4-Chloro-pyridine-2-carboxylic acid [cis-4-(4-dimethylamino-pyrimidin-2-ylamino)-cyclohexyl]-amide hydrochloride], above 0.2 µM; that for `CN(C)c1ccnc(N[C@H]2CC[C@@H](NC(=O)c3ccc(F)cc3)CC2)n1` [Example 3214, N-[cis-4-(4-Dimethylamino-pyrimidin-2-ylamino)-cyclohexyl]-4-fluoro-benzamide hydrochloride], 0.05 to 0.2 µM. For the compound `CN(C)c1ccnc(N[C@H]2CC[C@@H](NC(=O)c3cc(F)cc(Cl)c3)CC2)n1` [Example 3215, 3-Chloro-N-cis-4-(4-dimethylamino-pyrimidin-2-ylamino)-cyclohexyl]-5-fluoro-benzamide hydrochloride], the IC50 was in the range of 0.05 to 0.2 µM. Take `CN(C)c1ccnc(N[C@H]2CC[C@@H](NC(=O)c3cc(F)c(F)c(F)c3)CC2)n1` [Example 3216, N-[cis-4-(4-Dimethylamino-pyrimidin-2-ylamino)-cyclohexyl]-3,4,5-trifluoro-benzamide hydrochloride]: the IC50 was below 0.05 µM. The result for `CN(C)c1ccnc(N[C@H]2CC[C@@H](NC(=O)c3cc(C(C)(C)C)c(O)c(C(C)(C)C)c3)CC2)n1` [Example 3217, 3,5-Di-tert-butyl-N-[cis-4-(4-dimethylamino-pyrimidin-2-ylamino)-cyclohexyl]-4-hydroxy-benzamide hydrochloride] reads below 0.05 µM; that for `CN(C)c1ccnc(N[C@H]2CC[C@@H](NC(=O)Nc3cccc(Cl)c3Cl)CC2)n1` [Example 3218, 1-(2,3-Dichloro-phenyl)-3-[cis-4-(4-dimethylamino-pyrimidin-2-ylamino)-cyclohexyl]-urea hydrochloride], above 0.2 µM; that for `CN(C)c1ccnc(N[C@H]2CC[C@@H](CNC(=O)c3ccc(F)c(F)c3)CC2)n1` [Example 3219, N-[cis-4-(4-Dimethylamino-pyrimidin-2-ylamino)-cyclohexylmethyl]-3,4-difluoro-benzamide hydrochloride], 0.05 to 0.2 µM. For the compound `CN(C)c1ccnc(N[C@H]2CC[C@@H](CNC(=O)Cc3c(Cl)ccc(Cl)c3Cl)CC2)n1` [Example 3220, N-[cis-4-(4-Dimethylamino-pyrimidin-2-ylamino)-cyclohexylmethyl]-2-(2,3,6-trichloro-phenyl)-acetamide hydrochloride], the IC50 was below 0.05 µM. Then `CN(C)c1ccnc(N[C@H]2CC[C@@H](CNC(=O)C3c4ccccc4Oc4ccccc43)CC2)n1` [Example 3221, 9H-Xanthene-9-carboxylic acid [cis-4-(4-dimethylamino-pyrimidin-2-ylamino)-cyclohexylmethyl]-amide hydrochloride], with below 0.05 µM. Then `CN(C)c1ccnc(N[C@H]2CC[C@@H](CNC(=O)Nc3cccc(Cl)c3Cl)CC2)n1` [Example 3222, 1-(2,3-Dichloro-phenyl)-3-[cis-4-(4-dimethylamino-pyrimidin-2-ylamino)-cyclohexylmethyl]-urea hydrochloride], with below 0.05 µM; and `CNc1ccnc(N[C@H]2CC[C@@H](NC(=O)c3ccc(F)c(F)c3)CC2)n1` [Example 3223, 3,4-Difluoro-N-[cis-4-(4-methylamino-pyrimidin-2-ylamino)-cyclohexyl]-benzamide-hydrochloride], with above 0.2 µM; and `CNc1ccnc(N[C@H]2CC[C@@H](NC(=O)c3ccc(F)c(Cl)c3)CC2)n1` [Example 3224, 3-Chloro-4-fluoro-N-[cis-4-(4-methylamino-pyrimidin-2-ylamino)-cyclohexyl]-benzamide hydrochloride], with 0.05 to 0.2 µM.

Consider `CCNc1ccnc(N[C@H]2CC[C@@H](NC(=O)c3ccc(F)c(F)c3)CC2)n1` [Example 3225, N-[cis-4-(4-Ethylamino-pyrimidin-2-ylamino)-cyclohexyl]-3,4-difluoro-benzamide hydrochloride], for which the IC50 is above 0.2 µM.
